Key:
[1] = target: L-lactate dehydrogenase A chain (Homo sapiens, UniProt P00338); experiment: Inhibition of LDHA (unknown origin)
[2] = target: L-lactate dehydrogenase B chain (Homo sapiens, UniProt P07195); experiment: Inhibition of LDHB (unknown origin)
[3] = Inhibition of lactate production in human MIA PaCa-2 cells; type: functional, cell-based
[4] = Lipophilicity, logD of compound; type: physicochemical; conditions: octanol/water
[5] = Apparent permeability across apical to basolateral side in MDCK cells at 100 uM by HPLC analysis; type: ADME, cell-based, Canis lupus familiaris; conditions: dog
[6] = Plasma protein binding in mouse; type: ADME, cell-free; conditions: read-out: PPB
[7] = AUC in mouse at 5 mg/kg, po; type: ADME, organism-based; design: dose 5 mg/kg, route po; conditions: in vivo
[8] = AUC in mouse at 1 mg/kg, iv; type: ADME, organism-based; design: dose 1 mg/kg, route iv; conditions: in vivo
[9] = Cmax in mouse at 100 mg/kg, po; type: ADME, organism-based; design: dose 100 mg/kg, route po; conditions: in vivo
[10] = AUC in mouse at 50 mg/kg, po; type: ADME, organism-based; design: dose 50 mg/kg, route po; conditions: in vivo
[11] = AUC in mouse at 100 mg/kg, po; type: ADME, organism-based; design: dose 100 mg/kg, route po; conditions: in vivo
[12] = AUC in mouse at 200 mg/kg, po; type: ADME, organism-based; design: dose 200 mg/kg, route po; conditions: in vivo
[13] = Cmax in mouse at 1 mg/kg, iv; type: ADME, organism-based; design: dose 1 mg/kg, route iv; conditions: in vivo
[14] = Cmax in mouse at 5 mg/kg, po; type: ADME, organism-based; design: dose 5 mg/kg, route po; conditions: in vivo
[15] = Cmax in mouse at 50 mg/kg, po; type: ADME, organism-based; design: dose 50 mg/kg, route po; conditions: in vivo
[16] = Cmax in mouse at 200 mg/kg, po; type: ADME, organism-based; design: dose 200 mg/kg, route po; conditions: in vivo
[17] = Oral bioavailability in mouse at 5 mg/kg; type: ADME, organism-based; conditions: in vivo
[18] = Half-life in mouse at 1 mg/kg, iv; type: ADME, organism-based; conditions: in vivo
[19] = Volume of distribution at steady state in mouse at 1 mg/kg, iv; type: ADME, organism-based; conditions: in vivo, read-out: Vdss
[20] = Clearance in mouse at 1 mg/kg, iv; type: ADME, organism-based; conditions: in vivo
[21] = Toxicity in mouse xenografted with human MIA PaCa-2 cells assessed as effect on body weight at 200 to 400 mg/kg administered twice a day for 28 days; type: organism-based; conditions: in vivo, 672 h, dose 200-400 mg/kg, time 28 day

Sequence of L-lactate dehydrogenase B chain (P07195 whole entry): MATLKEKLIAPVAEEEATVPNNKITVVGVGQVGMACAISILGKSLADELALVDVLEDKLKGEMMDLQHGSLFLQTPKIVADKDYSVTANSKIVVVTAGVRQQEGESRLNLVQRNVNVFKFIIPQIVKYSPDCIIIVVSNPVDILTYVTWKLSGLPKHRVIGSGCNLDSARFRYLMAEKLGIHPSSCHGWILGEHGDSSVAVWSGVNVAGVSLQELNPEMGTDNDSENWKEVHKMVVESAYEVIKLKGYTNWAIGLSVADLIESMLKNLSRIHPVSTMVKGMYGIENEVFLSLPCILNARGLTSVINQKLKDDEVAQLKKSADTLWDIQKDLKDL

Structure (SMILES)	IC50 [1] [nM]	other results
O=C1NC(c2ccsc2)(c2cccc(Nc3ccc(F)c(F)c3)n2)CC(O)=C1Sc1ccccc1Cl (stereo in doubt; 38)	10	IC50 [3]: 9100 nM; logD [4]: 1.1
O=C1NC(c2ccc(N3CCOCC3)cc2)(c2cccc(Nc3ccc(F)cc3)n2)CC(O)=C1Sc1ccccc1Cl (stereo in doubt; 49)	11	
O=C1NC(c2cccc(Nc3ccc(F)c(F)c3)n2)(c2cccc(NC3CCCCC3)n2)CC(O)=C1Sc1ccccc1Cl (stereo in doubt; 34)	0.9	IC50 [3]: 2200 nM; logD [4]: 2.6
O=C1NC(c2ccc(N3CCOCC3)cc2)(c2cccc(Nc3ccc(F)cc3)n2)CC(O)=C1Sc1ccccc1Cl (stereo in doubt; 48)	2.5	logD [4]: 2
O=C1NC(c2ccsc2)(c2cccc(Nc3ccc(F)c(F)c3)n2)CC(O)=C1Sc1ccccc1Cl (stereo in doubt; 39)	75	
O=C1NC(c2cccc(NCCC3CC3)n2)(c2cccc(Nc3ccc(F)c(F)c3)n2)CC(O)=C1Sc1ccccc1Cl (stereo in doubt; 40)	13	
O=C1NC(c2cccc(NCc3ccc(F)cc3)n2)(c2cccc(Nc3ccc(F)c(F)c3)n2)CC(O)=C1Sc1ccccc1Cl (stereo in doubt; 42)	8.6	logD [4]: 2.5
O=C1NC(c2ccc(N3CCOCC3)cc2)(c2cccc(Oc3ccc(F)cc3)n2)CC(O)=C1Sc1ccccc1Cl (stereo in doubt; 51)	37	
O=C1NC(c2cccc(NCc3ccc(F)cc3)n2)(c2cccc(Nc3ccc(F)c(F)c3)n2)CC(O)=C1Sc1ccccc1Cl (stereo in doubt; 43)	160	
O=C1OC(c2ccsc2)(c2cccc(NCC(F)(F)F)c2)CC(O)=C1Sc1ccccc1Cl (racemic)	66	
O=C1O[C@](c2ccsc2)(c2cccc(Nc3ccc(F)cc3)c2)CC(O)=C1Sc1ccccc1Cl	36	
O=C1OC(c2ccsc2)(c2cccc(Nc3ccc(F)cc3)n2)CC(O)=C1Sc1ccccc1Cl (stereo in doubt; 30)	2.9	
O=C1N[C@@](c2cccc(Nc3ccc(F)cc3)n2)(c2cccc(Nc3ccc(F)c(F)c3)n2)CC(O)=C1Sc1ccccc1Cl	3.7	
O=C1OC(c2ccsc2)(c2cccc(Nc3ccc(F)cn3)c2)CC(O)=C1Sc1ccccc1Cl (stereo in doubt; 28)	2.9	
O=C1NC(c2ccc(N3CCOCC3)cc2)(c2cccc(Oc3ccc(F)cc3)n2)CC(O)=C1Sc1ccccc1Cl (stereo in doubt; 50)	1.8	IC50 [3]: 1700 nM; logD [4]: 1.9; Papp A→B at 100 µM [5]: 2.2 ×10⁻⁶ cm/s; fraction unbound [6]: 0.001
O=C1OC(c2ccccc2)(c2cccs2)CC(O)=C1Sc1ccccc1Cl (stereo in doubt; 7)	120	IC50 [2]: 1300 nM
O=C1OC(c2ccsc2)(c2cccc(Nc3ccc(F)cn3)c2)CC(O)=C1Sc1ccccc1Cl (stereo in doubt; 29)	63	
O=C1NC(c2cccc(Nc3ccc(F)c(F)c3)n2)(c2cccc(NC3CCOCC3)n2)CC(O)=C1Sc1ccccc1Cl (stereo in doubt; 36)	2.7	IC50 [3]: 7200 nM; logD [4]: 2.4

Structure (SMILES)	IC50 [1] [nM]	other results
O=C1OC(c2ccccc2)(c2ccccn2)CC(O)=C1Sc1ccccc1Cl (stereo in doubt; 2)	920	
O=C1NC(c2cccc(Nc3ccc(F)c(F)c3)n2)(c2cccc(Oc3ccccc3)n2)CC(O)=C1Sc1ccccc1Cl (stereo in doubt; 44)	2.5	IC50 [3]: 5300 nM; logD [4]: 2.6
O=C1OC(c2cccs2)(c2cccs2)CC(O)=C1Sc1ccccc1Cl	90	
O=C1O[C@@](c2ccsc2)(c2cccc(Nc3ccc(F)cc3)c2)CC(O)=C1Sc1ccccc1Cl	4	
O=C1NC(c2cccc(Nc3ccc(F)c(F)c3)n2)(c2cccc(Oc3ccccc3)n2)CC(O)=C1Sc1ccccc1Cl (stereo in doubt; 45)	3.2	
O=C1OC(c2ccccn2)(c2ccccn2)CC(O)=C1Sc1ccccc1Cl	1200	IC50 [2]: 2900 nM
O=C1NC(c2cccc(Nc3ccc(F)c(F)c3)n2)(c2cccc(Oc3cccc4ncccc34)n2)CC(O)=C1Sc1ccccc1Cl (stereo in doubt; 47)	68	IC50 [2]: 650 nM
O=C1NC(c2cccc(Nc3ccc(F)c(F)c3)n2)(c2cccc(NC3CCCCC3)n2)CC(O)=C1Sc1ccccc1Cl (stereo in doubt; 35)	4.4	
O=C1NC(c2cccc(Nc3ccc(F)c(F)c3)n2)(c2cccc(Oc3cccc4ncccc34)n2)CC(O)=C1Sc1ccccc1Cl (stereo in doubt; 46)	3.8	IC50 [2]: 25 nM; IC50 [3]: 3600 nM; logD [4]: 2.2
O=C1NC(c2cccc(NCCC3CC3)n2)(c2cccc(Nc3ccc(F)c(F)c3)n2)CC(O)=C1Sc1ccccc1Cl (stereo in doubt; 41)	190	
Nc1cccc(C2(c3ccccc3)CC(O)=C(Sc3ccccc3Cl)C(=O)O2)c1 (stereo in doubt; 22)	130	IC50 [2]: 250 nM
O=C1N[C@](c2cccc(Nc3ccc(F)cc3)n2)(c2cccc(Nc3ccc(F)c(F)c3)n2)CC(O)=C1Sc1ccccc1Cl	1.6	AUC [7]: 19.4 µM·h; AUC [8]: 6.5 µM·h; IC50 [3]: 2000 nM; logD [4]: 2.2; Cmax [9]: 66.9 µM; Papp A→B at 100 µM [5]: 4.6 ×10⁻⁶ cm/s; fraction unbound [6]: 0.001; AUC [10]: 71.2 µM·h; AUC [11]: 235 µM·h; AUC [12]: 411 µM·h; Cmax [13]: 7.36 µM; Cmax [14]: 5.95 µM; Cmax [15]: 23.3 µM; Cmax [16]: 117 µM; bioavailability [17]: 59.5%; half-life [18]: 2.81 h; Vd [19]: 0.671 L/kg; clearance [20]: 4.89 mL/min/kg; Activity [21]: Non-Toxic
O=C1OC(c2ccccc2)(c2ccccc2)CC(O)=C1Sc1ccccc1Cl	1000	IC50 [2]: 3100 nM
O=C1OC(c2ccsc2)(c2cccc(Nc3ccc(F)cc3)n2)CC(O)=C1Sc1ccccc1Cl (stereo in doubt; 31)	6.9	
O=C1OC(c2ccccc2)(c2ccccn2)CC(O)=C1Sc1ccccc1Cl (stereo in doubt; 3)	2400	
Nc1cccc(C2(c3ccccc3)CC(O)=C(Sc3ccccc3Cl)C(=O)O2)c1 (stereo in doubt; 23)	450	IC50 [2]: 3800 nM
O=C1NC(c2cccc(Nc3ccc(F)c(F)c3)n2)(c2cccc(NC3CCOCC3)n2)CC(O)=C1Sc1ccccc1Cl (stereo in doubt; 37)	55	

Continued, in another order:

IC50 [1] [nM]	Structure (SMILES)	other results
90	O=C1OC(c2ccccc2)(c2ccsc2)CC(O)=C1Sc1ccccc1Cl (stereo in doubt; 5)	
13	Nc1cccc(C2(c3ccsc3)CC(O)=C(Sc3ccccc3Cl)C(=O)O2)c1 (stereo in doubt; 20)	
970	O=C1OC(c2ccsc2)(c2ccccn2)CC(O)=C1Sc1ccccc1Cl (stereo in doubt; 12)	IC50 [2]: 3200 nM
130	O=C1OC(c2ccsc2)(c2ccccn2)CC(O)=C1Sc1ccccc1Cl (stereo in doubt; 11)	IC50 [2]: 540 nM
26	O=C1OC(c2ccccc2)(c2ccccc2O)CC(O)=C1Sc1ccccc1Cl (stereo in doubt; 14)	IC50 [2]: 75 nM
220	O=C1OC(c2ccsc2)(c2ccccc2F)CC(O)=C1Sc1ccccc1Cl (stereo in doubt; 18)	
430	O=C1OC(c2ccccc2)(c2ccsc2)CC(O)=C1Sc1ccccc1Cl (stereo in doubt; 6)	
180	O=C1OC(c2ccccc2)(c2cscn2)CC(O)=C1Sc1ccccc1Cl (stereo in doubt; 9)	IC50 [2]: 550 nM
1100	O=C1OC(c2ccccc2)(c2cscn2)CC(O)=C1Sc1ccccc1Cl (stereo in doubt; 10)	IC50 [2]: 2800 nM
190	Nc1cccc(C2(c3ccsc3)CC(O)=C(Sc3ccccc3Cl)C(=O)O2)c1 (stereo in doubt; 21)	
220	O=C1OC(c2ccccc2)(c2cccs2)CC(O)=C1Sc1ccccc1Cl (stereo in doubt; 8)	IC50 [2]: 1500 nM
430	O=C1OC(c2ccccc2)(c2ccccc2O)CC(O)=C1Sc1ccccc1Cl (stereo in doubt; 15)	IC50 [2]: 950 nM
450	O=C1OC(c2ccsc2)(c2ccccc2F)CC(O)=C1Sc1ccccc1Cl (stereo in doubt; 19)	
22	O=C1OC(c2ccsc2)(c2ccccc2O)CC(O)=C1Sc1ccccc1Cl (stereo in doubt; 17)	
43	CC(=O)Nc1cccc(C2(c3ccsc3)CC(O)=C(Sc3ccccc3Cl)C(=O)O2)c1 (racemic)	
2.2	O=C1OC(c2ccsc2)(c2ccccc2O)CC(O)=C1Sc1ccccc1Cl (stereo in doubt; 16)	
